Assay results reported in patent US8309685B2 (Celgene Avilomics Research, Inc., priority 2007, dated 2012).
Read-outs that look alike come from different tables or passages of the source.

What was measured:
HCV NS3/4A protease = HCV NS3/4A protease (UniProt Q9WMX2); experiment: Method B: HCV Protease Assay using FRET Methodology; parameters: species or system Hepatitis C virus
Description: Method B: HCV Protease Assay using FRET Methodology
A quantitative, fluorescence resonance energy transfer (FRET)-based methodology was employed to identify HCV NS3/4A protease inhibitors. The assay employed a synthetic FRET peptide, derived from the HCV NS5A/5B cleavage site, with the HCV protease to evaluate the activity of compounds against the protease by monitoring the cleavage activity of the complex. A synthetic peptide which encompasses the NS5A-5B junction (NH2-EDVVCCSMSYK-COOH) was labeled with Dabcyl and Edans at N- and C-termini, respectively (Invitrogen, Carlsbad, Calif.). Fluorescence measurement was used to estimate the IC50 value of the test compound. […] Upon cleavage of the FRET peptide by HCV NS3/4A proteinase complex (100 ng/mL), the fluorescence is recovered and can be continuously monitored at excitation/emission=340/490 nm.

[1] = molecular target: T1, wild type HCV NS3/4A 1b protease enzyme (Hepatitis C virus genotype 1b, UniProt P26663); experiment: biochemical; format: biochemical; conditions: read-out: Inhibition, WT; WT enzyme, FRET assay
T1 construct: 10× stocks of NS3/4A protease enzyme from Bioenza (Mountain View, Calif.); purchased Bioenza (Mountain View, Calif.)

[2] = molecular target: T2, D168A mutant of the HCV NS3/4A 1b protease enzyme (Hepatitis C virus genotype 1b, UniProt P26663, D1194A); experiment: HCV Protease FRET Assay (IC50_APP), D168A mutant; format: biochemical
T2 construct: 10× stocks of NS3/4A protease enzyme from Bioenza (Mountain View, Calif.); purchased Bioenza (Mountain View, Calif.)

[3] = tested on: cell line ET (luc-ubi-neo/ET), human Huh7 hepatoma cell line; experiment: Method A: cytotoxicity in ET replicon cells (CytoTox-1); format: cell-based; conditions: concentration decreasing cell viability by 50%, 72 hr
How it was run: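 ET cells (Huh7 carrying luciferase HCV replicon), 5×10^3 cells/well, given six 3-fold compound concentrations in DMEM with 5% FBS. After 72 hr, while subconfluent, cell number was measured with CytoTox-1 reagent. Interferon alpha-2b served as positive control.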

[4] = apparent IC50, D168A mutant; read-out: IC50_APP, HCV D168A

| Structure (SMILES) | IC50 (HCV NS3/4A protease; read-out: Inhibition, Biochemical; Enzyme/Assay: Biochemical) | IC50 [1] | IC50 ([2]; read-out: IC50_APP, HCV D168A; apparent IC50, D168A mutant) | Inhibition, Cytotoxicity [3] | IC50 [2, 4] | IC50 (HCV NS3/4A protease; Enzyme/Assay: Biochemical; read-out: Inhibition, Biochemical) |
| --- | --- | --- | --- | --- | --- | --- |
| C=C[C@@H]1C[C@]1(NC(=O)[C@@H]1C[C@@H](Oc2cc(-c3ccccc3)nc3cc(OC)ccc23)CN1C(=O)[C@H](CNC(=O)CCl)NC(=O)OC(C)(C)C)C(=O)NS(=O)(=O)c1ccccc1 [Compound I-7, N-[(1,1-dimethylethoxy)carbonyl]-3-[(chloroacetyl)amino]-L-alanyl-(4R)-4-[(7-methoxy-2-phenyl-4-quinolinyl)oxy]-L-prolyl-1-amino-2-ethenyl-N-(phenylsulfonyl)-(1R,2S)-cyclopropanecarboxamide] | 0.01 to 0.1 µM | < 0.01 µM | 0.1 to 1 µM | E (IC50≧10,000 nM) | – | – |
| C=CC(=O)NCC(=O)N1C[C@H](Oc2cc(-c3ccccc3)nc3cc(OC)ccc23)C[C@H]1C(=O)N[C@]1(C(=O)NS(=O)(=O)c2ccccc2)C[C@H]1C=C [Compound I-27, (2S,4R)-1-(2-acrylamidoacetyl)-4-(7-methoxy-2-phenylquinolin-4-yloxy)-N-((1R,2S)-1-(phenylsulfonylcarbamoyl)-2-vinylcyclopropyl)pyrrolidine-2-carboxamide] | – | < 0.01 µM | – | D (IC50>1000 nM and <10,000 nM) | 0.1 to 1 µM | – |
| C=CC(=O)NC[C@H](NC(=O)OC(C)(C)C)C(=O)N1C[C@H](Oc2cc(-c3ccccc3)nc3cc(OC)ccc23)C[C@H]1C(=O)N[C@]1(C(=O)NS(=O)(=O)c2ccccc2)C[C@H]1C=C [Compound I-3, N-[(1,1-dimethylethoxy)carbonyl]-3-[(2-propenoyl)amino]-L-alanyl-(4R)-4-[(7-methoxy-2-phenyl-4-quinolinyl)oxy]-L-prolyl-1-amino-2-ethenyl-N-(phenylsulfonyl)-(1R,2S)-cyclopropanecarboxamide] | – | < 0.01 µM | – | E (IC50≧10,000 nM) | 1 to 10 µM | 0.01 to 0.1 µM |
